In ChEMBL document CHEMBL1141978, “Synthesis and antibacterial activities of 5-hydroxy-4-amino-2(5H)-furanones” (2005):
≈ marks a conversion by molar mass, not a printed value.

How the values were obtained:
[1] = test system: Staphylococcus aureus; assay: Zone of inhibition of Staphylococcus aureus after treatment with the compound; type: functional
[2] = test system: Escherichia coli; assay: Zone of inhibition of Escherichia coli after treatment with the compound; type: functional
[3] = test system: Pseudomonas aeruginosa; assay: Zone of inhibition of Pseudomonas aeruginosa after treatment with the compound; type: functional
[4] = test system: Staphylococcus aureus; assay: Zone of inhibition of Staphylococcus aureus after treatment with compound; type: functional
[5] = test system: Escherichia coli; assay: Zone of inhibition of Escherichia coli after treatment with 10 ug of the compound; type: functional, organism-based
[6] = test system: Staphylococcus aureus; assay: Zone of inhibition of Staphylococcus aureus after treatment with 10 ug of the compound; type: functional, organism-based
[7] = test system: Pseudomonas aeruginosa; assay: Zone of inhibition of Pseudomonas aeruginosa after treatment with 10 ug of the compound; type: functional, organism-based
[8] = test system: Pseudomonas aeruginosa; assay: Zone of inhibition of Pseudomonas aeruginosa after treatment with the 30 ug of the compound; type: functional
[9] = test system: Staphylococcus aureus; assay: Zone of inhibition of Staphylococcus aureus after treatment with the 30 ug of the compound; type: functional
[10] = test system: Escherichia coli; assay: Zone of inhibition of Escherichia coli after treatment with the 30 ug of the compound; type: functional
[11] = test system: Pseudomonas aeruginosa; assay: Minimum […] concentration in Pseudomonas aeruginosa ATCC 27853 was determined; type: functional
[12] = test system: Staphylococcus aureus; assay: Minimum […] concentration in Staphylococcus aureus ATCC 25923 strain was determined; type: functional
[13] = test system: Klebsiella pneumoniae; assay: Minimum […] concentration in Klebsiella pneumoniae K2 strain was determined; type: functional
[14] = test system: Staphylococcus aureus; assay: Minimum […] concentration in Staphylococcus aureus S2 strain was determined; type: functional
[15] = test system: Staphylococcus aureus; assay: Minimum inhibitory concentration in Staphylococcus aureus S1 strain was determined; type: functional
[16] = test system: Escherichia coli; assay: Minimum […] concentration Escherichia coli ATCC 25922 strain was determined; type: functional
[17] = Minimum inhibitory concentration in Enterobacter En3 strain was determined; type: functional
[18] = test system: Staphylococcus aureus; assay: Minimum inhibitory concentration in Staphylococcus aureus S2 strain was determined; type: functional
[19] = Minimum […] concentration in Enterobacter En3 strain was determined; type: functional
[20] = test system: Acinetobacter sp.; assay: Minimum […] concentration in Acinetobacter species A1 strain was determined; type: functional
[21] = test system: Klebsiella pneumoniae; assay: Minimum inhibitory concentration in Klebsiella pneumoniae K2 strain was determined; type: functional
[22] = test system: Pseudomonas aeruginosa; assay: Minimum inhibitory concentration in Pseudomonas aeruginosa P12 strain was determined; type: functional
[23] = Minimum […] concentration in Enterobacter En1 strain was determined; type: functional
[24] = Minimum inhibitory concentration in Enterobacter En1 strain was determined; type: functional
[25] = test system: Staphylococcus aureus; assay: Minimum […] concentration in Staphylococcus aureus S1 strain was determined; type: functional
[26] = test system: Pseudomonas aeruginosa; assay: Minimum inhibitory concentration in Pseudomonas aeruginosa P7 strain was determined; type: functional
[27] = test system: Pseudomonas aeruginosa; assay: Minimum inhibitory concentration in Pseudomonas aeruginosa ATCC 27853 strain was determined; type: functional
[28] = test system: Klebsiella pneumoniae; assay: Minimum inhibitory concentration in Klebsiella pneumoniae K1 strain was determined; type: functional
[29] = test system: Staphylococcus aureus; assay: Minimum inhibitory concentration in Staphylococcus aureus ATCC 25923 strian was determined; type: functional
[30] = test system: Escherichia coli; assay: Minimum inhibitory concentration in Escherichia coli E3 strain was determined; type: functional
[31] = test system: Escherichia coli; assay: Minimum inhibitory concentration in Escherichia coli E1 strain was determined; type: functional
[32] = test system: Pseudomonas aeruginosa; assay: Minimum […] concentration in Pseudomonas aeruginosa P7 strain was determined; type: functional
[33] = test system: Pseudomonas aeruginosa; assay: Minimum […] concentration in Pseudomonas aeruginosa P12 strain was determined; type: functional
[34] = test system: Escherichia coli; assay: Minimum inhibitory concentration in Escherichia coli ATCC 25922 strain was determined; type: functional
[35] = test system: Acinetobacter sp.; assay: Minimum inhibitory concentration in Acinetobacter species A1 strain was determined; type: functional
[36] = test system: Acinetobacter sp.; assay: Minimum inhibitory concentration in Acinetobacter species A2 strain was determined; type: functional
[37] = test system: Acinetobacter sp.; assay: Minimum […] concentration in Acinetobacter species A2 strain was determined; type: functional
[38] = test system: Escherichia coli; assay: Minimum […] concentration in Escherichia coli E3 strain was determined; type: functional
[39] = test system: Escherichia coli; assay: Minimum […] concentration in Escherichia coli E1 strain was determined; type: functional
[40] = test system: Klebsiella pneumoniae; assay: Minimum […] concentration in Klebsiella pneumoniae K1 strain was determined; type: functional

Compound | Inhibition [2] [mm] | Inhibition [3] [mm] | Inhibition [4] [mm] | MBC [11] [µg/mL] | MBC [12] [µg/mL] | MBC [13] [µg/mL] | MBC [14] [µg/mL] | MIC [15] [µg/mL] | MBC [16] [µg/mL] | MIC [17] [µg/mL] | MIC [18] [µg/mL] | MBC [19] [µg/mL] | MBC [20] [µg/mL] | MIC [21] [µg/mL] | MIC [22] [µg/mL] | MBC [23] [µg/mL] | MIC [24] [µg/mL] | MBC [25] [µg/mL] | MIC [26] [µg/mL] | MIC [27] [µg/mL] | further results
C[S+](C)[O-] [DIMETHYL SULFOXIDE] | 0 | 0 |  |  |  |  |  |  |  |  |  |  |  |  |  |  |  |  |  |  | Inhibition [1]: 0 mm
C/N=C1\C(Br)=C(O)OC1O (stereo unspecified) | 9 | 7 | 16 |  |  |  |  |  |  |  |  |  |  |  |  |  |  |  |  |  | 
GENTAMICIN |  |  |  |  |  |  |  |  |  |  |  |  |  |  |  |  |  |  |  |  | Inhibition [5]: 25 mm; Inhibition [6]: 31 mm; Inhibition [7]: 0 mm
O=C(N[C@H](CO)[C@H](O)c1ccc([N+](=O)[O-])cc1)C(Cl)Cl [CHLORAMPHENICOL] |  |  |  |  |  |  |  |  |  |  |  |  |  |  |  |  |  |  |  |  | Inhibition [8]: 0 mm; Inhibition [9]: 0 mm; Inhibition [10]: 15 mm
OC1=C(Cl)/C(=N\Cc2ccccc2)C(O)O1 (stereo unspecified) | 6 | 6 | 16 | 64 (≈ 267 µM) | 8 (≈ 33.4 µM) | 32 (≈ 134 µM) | 32 (≈ 134 µM) | 16 (≈ 66.8 µM) | 16 (≈ 66.8 µM) | 16 (≈ 66.8 µM) | 32 (≈ 134 µM) | 32 (≈ 134 µM) | 8 (≈ 33.4 µM) | 16 (≈ 66.8 µM) | 16 (≈ 66.8 µM) | 16 (≈ 66.8 µM) | 8 (≈ 33.4 µM) | 32 (≈ 134 µM) | 32 (≈ 134 µM) | 32 (≈ 134 µM) | MIC [28]: 32 µg/mL (≈ 134 µM); MIC [29]: 4 µg/mL (≈ 16.7 µM); MIC [30]: 16 µg/mL (≈ 66.8 µM); MIC [31]: 16 µg/mL (≈ 66.8 µM); MBC [32]: 32 µg/mL (≈ 134 µM); MBC [33]: 32 µg/mL (≈ 134 µM); MIC [34]: 8 µg/mL (≈ 33.4 µM); MIC [35]: 4 µg/mL (≈ 16.7 µM); MIC [36]: 8 µg/mL (≈ 33.4 µM); MBC [37]: 16 µg/mL (≈ 66.8 µM); MBC [38]: 32 µg/mL (≈ 134 µM); MBC [39]: 16 µg/mL (≈ 66.8 µM); MBC [40]: 32 µg/mL (≈ 134 µM)
N=C1C(Cl)=C(O)OC1O (stereo unspecified) | 8 | 8 | 16 | 64 (≈ 428 µM) | 32 (≈ 214 µM) | 128 (≈ 856 µM) | 8 (≈ 53.5 µM) | 16 (≈ 107 µM) | 128 (≈ 856 µM) | 64 (≈ 428 µM) | 4 (≈ 26.7 µM) | 64 (≈ 428 µM) | 32 (≈ 214 µM) | 128 (≈ 856 µM) | 64 (≈ 428 µM) | 64 (≈ 428 µM) | 64 (≈ 428 µM) | 16 (≈ 107 µM) | 32 (≈ 214 µM) | 32 (≈ 214 µM) | MIC [28]: 32 µg/mL (≈ 214 µM); MIC [29]: 16 µg/mL (≈ 107 µM); MIC [30]: 64 µg/mL (≈ 428 µM); MIC [31]: 32 µg/mL (≈ 214 µM); MBC [32]: 64 µg/mL (≈ 428 µM); MBC [33]: 128 µg/mL (≈ 856 µM); MIC [34]: 64 µg/mL (≈ 428 µM); MIC [35]: 16 µg/mL (≈ 107 µM); MIC [36]: 32 µg/mL (≈ 214 µM); MBC [37]: 64 µg/mL (≈ 428 µM); MBC [38]: 128 µg/mL (≈ 856 µM); MBC [39]: 64 µg/mL (≈ 428 µM); MBC [40]: 64 µg/mL (≈ 428 µM)
C/N=C1\C(Cl)=C(O)OC1O (stereo unspecified) | 11 | 8 | 10 | 32 (≈ 196 µM) | 16 (≈ 97.8 µM) | 64 (≈ 391 µM) | 8 (≈ 48.9 µM) | 16 (≈ 97.8 µM) | 32 (≈ 196 µM) | 32 (≈ 196 µM) | 4 (≈ 24.5 µM) | 32 (≈ 196 µM) | 16 (≈ 97.8 µM) | 32 (≈ 196 µM) | 32 (≈ 196 µM) | 64 (≈ 391 µM) | 32 (≈ 196 µM) | 32 (≈ 196 µM) | 32 (≈ 196 µM) | 16 (≈ 97.8 µM) | MIC [28]: 16 µg/mL (≈ 97.8 µM); MIC [29]: 8 µg/mL (≈ 48.9 µM); MIC [30]: 64 µg/mL (≈ 391 µM); MIC [31]: 32 µg/mL (≈ 196 µM); MBC [32]: 64 µg/mL (≈ 391 µM); MBC [33]: 64 µg/mL (≈ 391 µM); MIC [34]: 16 µg/mL (≈ 97.8 µM); MIC [35]: 8 µg/mL (≈ 48.9 µM); MIC [36]: 64 µg/mL (≈ 391 µM); MBC [37]: 64 µg/mL (≈ 391 µM); MBC [38]: 64 µg/mL (≈ 391 µM); MBC [39]: 32 µg/mL (≈ 196 µM); MBC [40]: 32 µg/mL (≈ 196 µM)
